Source: patent publication US11064704B2, “Natural product formulations with improved residual insect repellent/deterrent activity” (University of Mississippi, priority 2016, dated 2021)

What was measured:
mosquitoes = test: in vivo direct skin application bioassay
Experimental: Direct skin application bioassays were conducted by using a powder-free latex glove (Diamond Grip, Microflex Corporation, Reno, Nev.). An opening of 3×4 cm was cut through the glove to fit on dorsal surface of the hand (FIG. 1). After wearing the glove, a wristband was used to avoid the biting on the hand near the border of the glove. Approximately, 500 (±5%), consisting primarily of females were transferred to a test cage (45×45×45 cm) using an aspirator. A series of dosages were tested to determine MED for repellency as well as residual activity against mosquitoes. A single test consisted of covering the hand of a volunteer with a powder-free latex glove and treating 12 cm^2 surface area, cut through the glove, on dorsal surface of the hand. Marked skin surface area was treated with the test compound in 50 μl of total volume. Because of constrain of man power, only one volunteer who was provided with a written informed consent participated in this study. A protocol approved by the University of Mississippi Human Use Institutional Review Board (IRB protocol #15-070) was followed.
The test started when the hand treated (3×4 cm area cut through the glove on the dorsal surface) with a test compound was inserted into the mosquito cage. […] Any treatment with […] females biting during 1 min test period was considered as “passed” whereas a treatment with ≥5 bites out of 500 mosquitoes was considered as “failed”. In case of passing the next lower and in case of failure next higher serial dose was tested to reach MED. Additionally, data on the residual repellent activity was recorded by exposing the treatments to the females after every 30 minutes until the treatment failed. Carrot essential oil, carotol and DEET and the mixtures were tested.
Direct skin application bioassays were conducted by using a powder-free latex glove (Diamond Grip™, Microflex Corporation, Reno, Nev.). An opening of 3×4 cm was cut through the glove to fit on the dorsal surface of the hand. After donning the glove, a wristband was used to avoid biting on the hand near the border of the glove. Approximately 500 (±5%) mosquitoes, consisting primarily of females, were transferred to a test cage (45×45×45 cm) using an aspirator. A series of dosages were tested to determine MED for repellency as well as residual activity against mosquitoes.
A single test consisted of covering the hand of a volunteer with a powder-free latex glove and treating a 12 cm^2 surface area, cut through the glove, on the dorsal surface of the hand. Marked skin surface area was treated with the test compound in 50 μl of total volume. Because of constraints of man power, only one volunteer who was provided with a written informed consent participated in this study. A protocol approved by the University of Mississippi Human Use Institutional Review Board (IRB Protocol #15-070) was followed.
The test started when the hand treated (3×4 cm area cut through the glove on the dorsal surface) with a test compound was inserted into the mosquito cage. […] Any treatment with ≤5 females biting during the 1 min test period was considered as “passed”, whereas a treatment with ≥5 bites out of 500 mosquitoes was considered as “failed”. In case of passing, the next lower, and in case of failure, the next higher, serial dose was tested to reach MED. Additionally, data on the residual repellent activity were recorded by exposing the treatments to the females after every 30 minutes until the treatment failed. Carrot seed essential oil, carotol, geranium and lemon Eucalyptus essential oils, DEET, picaridin and the mixtures were tested.

Aedes aegypti = test: in vitro Klun and Debboun (K&D) biting deterrent bioassay; assay type: in vivo
Experimental: Experiments were conducted by using a six-celled in vitro Klun and Debboun (K&D) module bioassay system developed by Klun et al. (2005) for quantitative evaluation of biting deterrence. Briefly, the assay system consists of a six well reservoir with each of the 3×4 cm wells containing 6 mL of blood or feeding solution. As described by Ali et al. (2012), a feeding solution consisting of CPDA-1 and ATP was used instead of blood. Green fluorescent tracer dye (www.blacklightworld.com) was used to determine the feeding by the females. Carrot seed essential oil was initially tested to determine the biting deterrent activity. […] Essential oil and carotol were further tested against Ae. aegypti and An. quadrimaculatus in this bioassay. Treatments of carrot seed essential oil at 10 μg/cm^2 and carotol were tested at 10 and 5 μg/cm^2, whereas DEET (97% N,N-diethyl-meta-toluamide) (Sigma Aldrich, St. Louis, Mo.) at 25 nmol/cm^2 was used as positive control. All the treatments were freshly prepared in molecular biology grade 100% ethanol (Fisher Scientific Chemical Co. Fairlawn, N.J.) at the time of bioassay.
The temperature of the solution in the reservoirs was maintained at 37° C. by continuously passing warm water through the reservoir using a circulatory bath. The reservoirs were covered with a layer of collagen membrane (Devro, Sandy Run, S.C.). The test compounds were randomly applied to six 4×5 cm areas of organdy cloth and positioned over the membrane-covered CPDA-1+ATP solution with a Teflon® separator placed between the treated cloth and the six-celled module to prevent the contamination of the module. A six-celled K&D module containing five female mosquitoes per cell was positioned over cloth treatments covering the six CPDA-1+ATP solution membrane wells, and trap doors were opened to expose the treatments to these females. The number of mosquitoes biting through organdy treatments in each cell was recorded after a 3 minute exposure, and mosquitoes were prodded back into the cells to check the actual feeding. Mosquitoes were squashed and the presence of green fluorescent tracer dye (or not) in the gut was used as an indicator of feeding. A replicate consisted of six treatments: four test compounds, DEET (a standard biting deterrent) and ethanol-treated organdy as solvent control applied randomly. Sets of 5 replications each with 5 females per treatment were conducted on 2-3 different days using newly-treated organdy and a new batch of females in each replication. Treatments were replicated 10-15 times. Proportion not biting (PNB) was calculated using the procedure described by Ali et al. (2012).

| SMILES | residual activity: time post application at which MED level crossed (mosquitoes; 1% rate of application) | residual activity: time post application at which MED level crossed (mosquitoes; 2% rate of application) | proportion not biting (PNB) (Aedes aegypti; 25 nmol/cm^2) | residual activity: time post application at which MED reached (mosquitoes; 8% application rate) | residual activity: time post application at which MED reached/crossed (mosquitoes; 12.5% application rate) | residual activity: time post application at which MED reached (mosquitoes; 25% application rate) | residual activity: time post application at which MED reached (mosquitoes; 50% application rate) | proportion not biting (PNB) (Aedes aegypti; 5 μg/cm^2) | proportion not biting (PNB) (Aedes aegypti; 10 μg/cm^2) | biting deterrent activity (Aedes aegypti; compared with DEET) |
| --- | --- | --- | --- | --- | --- | --- | --- | --- | --- | --- |
| CCN(CC)C(=O)c1cccc(C)c1 [DEET, N,N-diethyl-meta-toluamide, reference compound] | 1 h | 1 h | 0.85 | – | – | – | – | – | – | – |
| CC1=CC[C@]2(C)CC[C@@H](C(C)C)[C@]2(O)CC1 [carotol] | – | – | – | 1.5 h | 1.5 h | 2 h | 2.5 h | 0.66 | 0.9 | comparable to DEET |
